Test results reported in the NIST ThermoML archive (doi:10.1016/j.jct.2018.12.009).
± gives the expanded uncertainty stated by the source.

Experiment: molar heat capacity at constant volume
Conditions: Fluid (supercritical or subcritical phases), Mass density=329.2 kg/m3

CC(C)O [propan-2-ol]
Conditions	molar heat capacity at constant volume [J/K/mol]
314.29 K	177.46 ± 8.2
314.52 K	182.81 ± 8.5
314.8 K	184.67 ± 8.5
315.05 K	181.49 ± 8.4
315.3 K	177.88 ± 8.2
315.42 K	176.26 ± 8.2
315.61 K	174.88 ± 8.1
315.8 K	178.6 ± 8.3
341.91 K	203.12 ± 9.4
342.08 K	202.22 ± 9.4
342.2 K	203.54 ± 9.4
342.32 K	207.27 ± 9.6
342.49 K	201.32 ± 9.3
342.67 K	203.72 ± 9.4
342.79 K	202.76 ± 9.4
342.91 K	201.62 ± 9.4
343.03 K	204.08 ± 9.5
369.05 K	225.9 ± 10
369.16 K	220.01 ± 10
369.28 K	231.31 ± 11
369.39 K	222.83 ± 10
369.5 K	225.96 ± 10
369.67 K	223.55 ± 10
369.84 K	221.75 ± 10
369.96 K	221.03 ± 10
370.07 K	219.47 ± 10
391.32 K	243.38 ± 11
391.53 K	248.85 ± 12
391.54 K	243.44 ± 11
391.65 K	246.93 ± 11
391.76 K	235.69 ± 11
391.87 K	241.16 ± 11
391.98 K	242.54 ± 11
392.09 K	244.11 ± 11
392.2 K	243.2 ± 11
416.55 K	258.83 ± 12
416.65 K	260.09 ± 12
416.76 K	252.52 ± 12
416.86 K	257.99 ± 12
416.97 K	255.76 ± 12
417.08 K	261.47 ± 12
417.18 K	252.94 ± 12
417.29 K	253.84 ± 12
417.4 K	259.73 ± 12
417.5 K	261.17 ± 12
442.12 K	262.92 ± 12
442.23 K	265.86 ± 12
442.33 K	272.53 ± 13
442.43 K	265.68 ± 12
442.54 K	266.76 ± 12
442.64 K	267.6 ± 12
442.74 K	270.13 ± 13
442.85 K	265.86 ± 12
463.48 K	270.31 ± 13
463.58 K	271.63 ± 13
463.78 K	270.31 ± 13
463.83 K	274.63 ± 13
463.97 K	279.44 ± 13
464.18 K	278.72 ± 13
464.27 K	280.16 ± 13
464.42 K	278.24 ± 13
464.97 K	277.34 ± 13
465.27 K	272.77 ± 13
465.34 K	278.54 ± 13
482.51 K	288.1 ± 13
482.6 K	289.9 ± 13
482.7 K	288.46 ± 13
482.8 K	287.73 ± 13
482.89 K	288.34 ± 13
482.99 K	292 ± 14
483.09 K	287.19 ± 13
483.18 K	291.64 ± 14
500.85 K	316.94 ± 15
500.95 K	311.35 ± 14
